Patent publication US9492467B2, “Rapid-acting insulin formulation comprising an oligosaccharide” (ADOCIA, priority 2011, dated 2016)
Where a name gives a salt, the structure may show the parent alone.

Assays:
[1] = pH; cited from earlier work
[2] = biological target: T1, insulin lispro (hexameric form R6) (Homo sapiens, UniProt P01308, K53P/P52K); experiment: State of association of insulin lispro by circular dichroism (CD signal at 251 nm); type: physicochemical; conditions: added to Humalog, FIG. 27
T1 construct: purchased Eli Lilly Humalog®
Excerpt: Circular dichroism makes it possible to study the secondary and quaternary structure of insulin. The insulin monomers organize into dimers and hexamers. […] There are two hexameric forms, form R6 and form T6. […] Loss of the CD signal at 251 nm is connected with destabilization of the hexamer (and therefore the first sign of transformation of the hexamer to dimer).

humans = conditions: injected subcutaneously; cited from earlier work
[3] = form of hexamers, 4° C.; cited from earlier work
[4] = biological target: human insulin (hexameric form) (Homo sapiens, UniProt P01308); experiment: State of association of human insulin by circular dichroism (CD signal at 276 nm); type: physicochemical; conditions: absence of m-cresol, FIG. 28
Excerpt: Loss of the CD signal at 276 nm is therefore characteristic of destabilization of the hexamer to dimers or monomers.

T1 sequence (P01308 25-54 P52K/K53P limits assumed): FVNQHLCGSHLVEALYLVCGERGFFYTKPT
T1 sequence (P01308 90-110 limits assumed): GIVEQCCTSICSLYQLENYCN
Chain of human insulin (hexameric form) (P01308 25-54 limits assumed): as the sequence (P01308 25-54 P52K/K53P limits assumed) above, with K28P, P29K counted along it

Molecule: Insulin lispro: rapid-acting insulin analog, active of Humalog®
- isoelectric point [1]: 5.3

Molecule: O=C(O)CC(O)(CC(=O)O)C(=O)O [citrate, sodium citrate]
- effect on the CD signal at 251 nm / R6 form of insulin lispro [2]: almost no effect

Molecule: human insulin: insulin obtained by synthesis or recombination whose peptide sequence is the sequence of human insulin
- hypoglycemic effect after (humans): 60 min
- stable for [3]: ~2 years

Molecule: O=C(O)CN(CCN(CC(=O)O)CC(=O)O)CC(=O)O [EDTA, reference compound]
- effect on the hexameric structure of human insulin (CD signal at 276 nm) [4]: complete dissociation of the hexamer to dimers
- effect on the CD signal at 251 nm / R6 form of insulin lispro [2]: completely destructures the R6 form of insulin lispro
